According to article PMC10710422, “Senescence-associated 13-HODE production promotes age-related liver steatosis by directly inhibiting catalase activity” (Nature Communications, 2023):
Each block holds one molecule with its values, some of them ahead of it.

What was measured:
[1] = target: T1, recombinant human CAT protein (Homo sapiens, UniProt P04040); test: catalase activity kit; type: biochemical; settings: 20 min preincubation with 1 μM 13-HODE, room temperature not stated
T1 construct: commercial recombinant protein
T1 sequence (P04040 2-527): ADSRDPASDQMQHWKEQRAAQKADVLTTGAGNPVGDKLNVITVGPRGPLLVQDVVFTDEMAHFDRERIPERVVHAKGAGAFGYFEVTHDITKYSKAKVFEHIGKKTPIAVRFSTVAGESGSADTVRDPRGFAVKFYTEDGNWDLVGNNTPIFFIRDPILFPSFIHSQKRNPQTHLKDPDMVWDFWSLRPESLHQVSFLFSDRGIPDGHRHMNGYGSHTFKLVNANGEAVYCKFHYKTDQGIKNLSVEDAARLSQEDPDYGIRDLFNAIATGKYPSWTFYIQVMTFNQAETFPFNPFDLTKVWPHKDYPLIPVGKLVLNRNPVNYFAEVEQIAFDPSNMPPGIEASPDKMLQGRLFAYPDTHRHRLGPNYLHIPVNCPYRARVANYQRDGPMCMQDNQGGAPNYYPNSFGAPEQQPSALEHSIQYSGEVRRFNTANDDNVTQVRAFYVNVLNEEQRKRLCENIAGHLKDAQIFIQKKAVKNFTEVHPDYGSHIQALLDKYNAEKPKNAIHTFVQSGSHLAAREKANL

[2] = target: T2, Recombinant mouse catalase protein (CAT) (Mus musculus, UniProt P24270); test: surface plasmon resonance (Biacore T200), steady-state affinity; type: binding
T2 construct: commercial recombinant protein, immobilised on CM5 chip
T2 sequence (P24270 2-527): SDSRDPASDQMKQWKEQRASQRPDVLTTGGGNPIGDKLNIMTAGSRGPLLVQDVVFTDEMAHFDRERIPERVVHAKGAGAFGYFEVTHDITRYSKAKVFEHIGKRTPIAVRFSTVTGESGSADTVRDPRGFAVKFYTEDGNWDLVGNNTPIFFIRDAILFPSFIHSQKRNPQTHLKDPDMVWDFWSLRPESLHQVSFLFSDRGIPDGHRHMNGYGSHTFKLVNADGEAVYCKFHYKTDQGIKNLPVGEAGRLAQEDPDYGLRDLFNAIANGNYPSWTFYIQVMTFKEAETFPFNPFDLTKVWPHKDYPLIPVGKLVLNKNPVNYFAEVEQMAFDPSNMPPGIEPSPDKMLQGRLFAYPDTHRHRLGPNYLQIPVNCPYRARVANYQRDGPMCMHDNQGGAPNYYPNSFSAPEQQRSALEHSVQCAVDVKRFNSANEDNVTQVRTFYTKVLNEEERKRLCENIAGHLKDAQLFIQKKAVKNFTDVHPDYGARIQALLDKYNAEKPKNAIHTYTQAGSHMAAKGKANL

[3] = target: the molecule itself; test: cross-linking; primary mouse hepatocytes treated with or without 1 uM 13-HODE for 6 h, then 100 uM DSS crosslinker for 1 h before protein extraction; western blot for CAT tetramer and monomer; monomer to tetramer

Molecule: CCCCCC(O)/C=C/C=C\CCCCCCCC(=O)O (stereo not drawn) [13-HODE]
CAT activity at 1 μM [1]: incubated recombinant CAT protein with 13-HODE and found that it inhibited CAT activity in vitro

Kd [2]: 2.42 µM
Molecule: CCCCC[C@H](O)/C=C/C=C\CCCCCCCC(=O)O [13(S)-HODE]

B1: Catalase (CAT) (enzyme, UniProt P24270 1-527, looked up)
chain: MSDSRDPASDQMKQWKEQRASQRPDVLTTGGGNPIGDKLNIMTAGSRGPLLVQDVVFTDEMAHFDRERIPERVVHAKGAGAFGYFEVTHDITRYSKAKVFEHIGKRTPIAVRFSTVTGESGSADTVRDPRGFAVKFYTEDGNWDLVGNNTPIFFIRDAILFPSFIHSQKRNPQTHLKDPDMVWDFWSLRPESLHQVSFLFSDRGIPDGHRHMNGYGSHTFKLVNADGEAVYCKFHYKTDQGIKNLPVGEAGRLAQEDPDYGLRDLFNAIANGNYPSWTFYIQVMTFKEAETFPFNPFDLTKVWPHKDYPLIPVGKLVLNKNPVNYFAEVEQMAFDPSNMPPGIEPSPDKMLQGRLFAYPDTHRHRLGPNYLQIPVNCPYRARVANYQRDGPMCMHDNQGGAPNYYPNSFSAPEQQRSALEHSVQCAVDVKRFNSANEDNVTQVRTFYTKVLNEEERKRLCENIAGHLKDAQLFIQKKAVKNFTDVHPDYGARIQALLDKYNAEKPKNAIHTYTQAGSHMAAKGKANL
notes: Catalase, mouse, endogenous in primary hepatocytes of C57BL/6 mice; Detected by western blot as monomer and tetramer after DSS cross-linking; source: endogenous, primary mouse hepatocytes (cross-linked in cells before protein extraction)
stoichiometry N [3]: 4
